Experimental data taken from ChEMBL document CHEMBL5113453, “Design, synthesis, and biological evaluation of a new series of pyrazole derivatives: Discovery of potent and selective JNK3 kinase inhibitors” (Bioorg Med Chem, 2022).

Experiments:
RPMI-8226 [1] = assay: Induction of necrosis in human RPMI-8226 cells assessed as LDH release at 0.73 uM; type: functional
RPMI-8226 [2] = assay: Induction of necrosis in human RPMI-8226 cells assessed as LDH release at 5.47 uM; type: functional

| SMILES | Activity (RPMI-8226 [1]) [%] | Activity (RPMI-8226 [2]) [%] |
| --- | --- | --- |
| O=C(NCCCNc1cc(-c2cn(-c3ccccc3)nc2-c2cccc(O)c2)ccn1)Nc1cccc(C(F)(F)F)c1 | 6.7 | – |
| O=C(NCCCNc1cc(-c2cn(-c3ccccc3)nc2-c2cccc(O)c2)ccn1)Nc1ccc(F)cc1 | – | 32.4 |
